The values that follow come from patent EP0700399B1, “36-DERIVATIVES OF RIFAMYCINS AND THEIR USE AS ANTIMICROBIAL AGENTS” (GRUPPO LEPETIT S.P.A., priority 1993, dated 1994).

Molecules are shown by their SMILES. Like-named read-outs stand apart in the source and are kept apart here.

The test system of assay [1] is Bacteroides fragilis ATCC 23745. Put plainly: MIC by broth microdilution. It counts as cell-based. Particulars: Bacteroides fragilis, ATCC23745; internal code L1010; anaerobic, 48 hours; read-out: MIC of the compounds.
The subject of assay [2] is Staph. haemolyticus rifa-r^(2). Put plainly: MIC by broth microdilution. In kind it is cell-based. Particulars: Staphylococcus haemolyticus, read-out: MIC of the compounds.
A further assay relates to Strept. pneumoniae. In words: MIC by broth microdilution. In kind it is cell-based. Particulars: Streptococcus pneumoniae; internal code L44; read-out: MIC of the compounds. (In general: Dilution methods test growth across graded concentrations, often in twofold steps.)
Assay [3] concerns Haemoph. influenzae ATCC 19418. Put plainly: MIC by broth microdilution. It counts as cell-based, Haemophilus influenzae. Particulars: Haemophilus influenzae, ATCC19418; internal code L970; 5% carbon dioxide, 48 hours; read-out: MIC of the compounds.
Assay [4] concerns Pseudomonas aerug. ATCC10145. Put plainly: MIC by broth microdilution. It counts as cell-based, Pseudomonas aeruginosa. The conditions noted are these: Pseudomonas, ATCC10145; internal code L4; read-out: MIC of the compounds.
Another assay deals with Neisseria gonorrhoeae. In words: MIC by broth microdilution. Particulars: Neisseria gonorrhoeae; internal code L997; 5% carbon dioxide, 48 hours; read-out: MIC of the compounds. It counts as cell-based.
In another assay the test system is Escherichia coli. In words: MIC by broth microdilution. In kind it is cell-based. Particulars: Escherichia coli; internal code L47; read-out: MIC of the compounds.
Assay [5] relates to Esch. coli K12 hyperpermeable. Put plainly: MIC by broth microdilution. It counts as cell-based, Escherichia coli. The conditions noted are these: Escherichia coli, read-out: MIC of the compounds.
For assay [6], the system named is Proteus vulgaris ATCC 881. Put plainly: MIC by broth microdilution. The conditions noted are these: Proteus vulgaris, ATCC881; internal code L79; read-out: MIC of the compounds. In kind it is cell-based.
A further assay concerns Esch. coli K12 wild type. Put plainly: MIC by broth microdilution. In kind it is cell-based. The conditions noted are these: Escherichia coli, K12WILDTYPE, internal code G210, read-out: MIC of the compounds.
For assay [7], the system named is Esch. coli K12 rifa-r^(1). Put plainly: MIC by broth microdilution. In kind it is cell-based, Escherichia coli. The conditions noted are these: Escherichia coli, read-out: MIC of the compounds.
A further assay has as its system Staph. aureus rifa-r^(2). In words: MIC by broth microdilution. In kind it is cell-based. Particulars: Staphylococcus aureus, read-out: MIC of the compounds.
Assay [8] has as its system Staph. epidermidis ATCC 12228. Put plainly: MIC by broth microdilution. Particulars: Staphylococcus epidermidis, ATCC12228; internal code L147; read-out: MIC of the compounds. In kind it is cell-based.
The test system of assay [9] is Propionibact. acnes ATCC 6919. In words: MIC by broth microdilution. It counts as cell-based, Propionibacterium acnes. Particulars: Cutibacterium acnes, ATCC6919; internal code L1014; anaerobic, 48 hours; read-out: MIC of the compounds.
Assay [10] has as its system Enterococc. faecalis ATCC 7080. In words: MIC by broth microdilution. It counts as cell-based, Enterococcus faecalis. Particulars: Enterococcus faecalis, ATCC7080; internal code L149; read-out: MIC of the compounds.
A further assay has as its system Staphylococcus aureus. Put plainly: MIC by broth microdilution. In kind it is cell-based. The conditions noted are these: Staphylococcus aureus; internal code L165; read-out: MIC of the compounds.
Another assay has as its system Streptococcus pyogenes. Put plainly: MIC by broth microdilution. In kind it is cell-based. Particulars: Streptococcus pyogenes; internal code L49; read-out: MIC of the compounds.
Assay [11] concerns Moraxella catarr. ATCC 8178. In words: MIC by broth microdilution. In kind it is cell-based, Moraxella catharralis. The conditions noted are these: ATCC8178, internal code L76, read-out: MIC of the compounds.
The test system of a further assay is Clostridium perfringens. Put plainly: microbe, parasite or virus in culture. The conditions noted are these: read-out: MIC of the compounds. It counts as cell-based.
A further assay deals with Klebsiella pneumoniae. Put plainly: MIC by broth microdilution. In kind it is cell-based. Particulars: internal code L142, read-out: MIC of the compounds.
The subject of assay [12] is Bacteroides fragilis ATCC 25285. In words: MIC by broth microdilution. Particulars: Bacteroides fragilis, ATCC25285; internal code L1011; anaerobic, 48 hours; read-out: MIC of the compounds. In kind it is cell-based.
The test system of another assay is Staph. aureus rifa-r^(1). Put plainly: MIC by broth microdilution. In kind it is cell-based. The conditions noted are these: Staphylococcus aureus, read-out: MIC of the compounds.

Consider `CO[C@H]1/C=C/O[C@@]2(C)Oc3c(C)c(O)c4c(c3C2=O)C(=O)C=C(NC(=O)/C(C)=C\C=C\[C@H](C)[C@H](O)[C@@H](C)[C@@H](O)[C@@H](C)[C@H](OC(=O)CF)[C@@H]1C)C4=O` [Compound C2, 36-Fluororifamycin S], for which the MIC in assay [1] is 2 µg/mL; in assay [2] (internal code L602, rifampicin resistant strain, highly resistant) it was at least 128 µg/mL; in the assay with Strept. pneumoniae, 0.015 µg/mL; in [3] it was 2 µg/mL; in assay [4], 64 µg/mL; in the assay with Neisseria gonorrhoeae it was 2 µg/mL. Further, the MIC was 128 µg/mL in the assay on Escherichia coli; 1 µg/mL in [5] (internal code G1640, hyperpermeable); 32 µg/mL in assay [6]; at least 128 µg/mL with Esch. coli K12 wild type; over 128 µg/mL in assay [7] (internal code G1064, rifampicin resistant strain, moderately resistant); 64 µg/mL in the assay on Staph. aureus rifa-r^(2) (internal code L1282, rifampicin resistant strain, highly resistant). Further, the MIC in [8] came to 0.015 µg/mL; in assay [9], 0.13 µg/mL; in assay [10], 1 µg/mL; in the assay on Staphylococcus aureus, 0.015 µg/mL; in the assay with Streptococcus pyogenes, 0.008 µg/mL.

For `CO[C@H]1/C=C/O[C@@]2(C)Oc3c(C)c(O)c4c(c3C2=O)C(=O)C=C(NC(=O)/C(C)=C\C=C\[C@H](C)[C@H](O)[C@@H](C)[C@@H](O)[C@@H](C)[C@H](OC(=O)CCl)[C@@H]1C)C4=O` [Compound C3, 36-Chlororifamycin S], the MIC came to 0.008 µg/mL in assay [11]; 64 µg/mL in [2]; 0.03 µg/mL with Strept. pneumoniae; 1 µg/mL in assay [3]; 32 µg/mL in assay [4]; 0.13 µg/mL with Neisseria gonorrhoeae. For the same compound, the MIC with Clostridium perfringens is 0.0003 µg/mL; with Escherichia coli it was 32 µg/mL; in assay [5] it was 0.25 µg/mL; in the assay on Klebsiella pneumoniae, 64 µg/mL; in [6] it was 8 µg/mL; in assay [7], over 128 µg/mL. Besides, the MIC in the assay on Staph. aureus rifa-r^(2) was found to be 16 µg/mL; in assay [8], 0.008 µg/mL; in [12], 0.13 µg/mL; in [9] it was 0.03 µg/mL; in assay [10] it was 0.25 µg/mL; in the assay with Staph. aureus rifa-r^(1), 1 µg/mL. Also, the MIC with Staphylococcus aureus is 0.004 µg/mL; in the assay with Streptococcus pyogenes, 0.016 µg/mL.

For `CO[C@H]1/C=C/O[C@@]2(C)Oc3c(C)c(O)c4c(c3C2=O)C(=O)C=C(NC(=O)/C(C)=C\C=C\[C@H](C)[C@H](O)[C@@H](C)[C@@H](O)[C@@H](C)[C@H](OC(=O)CSC)[C@@H]1C)C4=O` [Compound C4, 36-Methylthiorifamycin S], the MIC in [1] turned out to be 0.5 µg/mL; in assay [2], 128 µg/mL; in the assay on Strept. pneumoniae, 0.002 µg/mL; in assay [3], 1 µg/mL; in [4], 32 µg/mL; with Neisseria gonorrhoeae it was 0.5 µg/mL. Moreover, the MIC in the assay on Escherichia coli is 64 µg/mL; in [5] it was 0.51 µg/mL; in assay [6] it was 8 µg/mL; in the assay on Esch. coli K12 wild type, 64 µg/mL; in [7], over 128 µg/mL; in the assay on Staph. aureus rifa-r^(2) it was 32 µg/mL. Also, the MIC in assay [8] was 0.001 µg/mL; in assay [9] it was 0.06 µg/mL; in assay [10], 0.5 µg/mL; in the assay with Staphylococcus aureus, 0.008 µg/mL; in the assay with Streptococcus pyogenes it was 0.008 µg/mL.

In the case of `CO[C@H]1/C=C/O[C@@]2(C)Oc3c(C)c(O)c4c(c3C2=O)C(=O)C(N2CCOCC2)=C(NC(=O)/C(C)=C\C=C\[C@H](C)[C@H](O)[C@@H](C)[C@@H](O)[C@@H](C)[C@H](OC(=O)CBr)[C@@H]1C)C4=O` [Compound C8, 36-Bromo-3-(4-morpholinyl)rifamycin S], the MIC in assay [11] came to 0.002 µg/mL; in [2], 16 µg/mL; in the assay on Strept. pneumoniae, 0.03 µg/mL; in [3] it was 0.13 µg/mL; in assay [4], 16 µg/mL; with Neisseria gonorrhoeae it was 0.03 µg/mL. For the same compound, the MIC with Clostridium perfringens is 0.001 µg/mL; in the assay on Escherichia coli it was 8 µg/mL; in assay [5] it was at most 0.13 µg/mL; in the assay on Klebsiella pneumoniae, 16 µg/mL; in assay [6], 8 µg/mL; in assay [7] it was over 128 µg/mL. Moreover, the MIC in the assay on Staph. aureus rifa-r^(2) was 0.5 µg/mL; in [8] it was 0.001 µg/mL; in [12], 0.03 µg/mL; in [9], 0.004 µg/mL; in assay [10] it was 0.5 µg/mL; in the assay on Staph. aureus rifa-r^(1), 0.5 µg/mL. For the same compound, the MIC in the assay with Staphylococcus aureus came out at 0.002 µg/mL; in the assay with Streptococcus pyogenes it was 0.06 µg/mL.

As to `CO[C@H]1/C=C/O[C@@]2(C)Oc3c(C)c(O)c4c(c3C2=O)C(=O)C=C(NC(=O)/C(C)=C\C=C\[C@H](C)[C@H](O)[C@@H](C)[C@@H](O)[C@@H](C)[C@H](OC(=O)CI)[C@@H]1C)C4=O` [Compound C10, 36-Iodorifamycin S], the MIC in assay [1] was found to be 0.5 µg/mL; in assay [2] it was 64 µg/mL; in the assay with Strept. pneumoniae, 0.03 µg/mL; in assay [3], 4 µg/mL; in [4], 32 µg/mL; in the assay on Neisseria gonorrhoeae, 16 µg/mL. Also, the MIC in the assay on Escherichia coli is 64 µg/mL; in [5], 1 µg/mL; in [6], 32 µg/mL; in the assay on Esch. coli K12 wild type it was 128 µg/mL; in assay [7], at least 128 µg/mL; in the assay with Staph. aureus rifa-r^(2) it was 32 µg/mL. For the same compound, the MIC in assay [8] was found to be 0.06 µg/mL; in [9], 0.13 µg/mL; in assay [10], 2 µg/mL; with Staphylococcus aureus, 0.06 µg/mL; in the assay on Streptococcus pyogenes, 0.015 µg/mL.

As to `CO[C@H]1/C=C/O[C@@]2(C)Oc3c(C)c(O)c4c(c3C2=O)C(=O)C=C(NC(=O)/C(C)=C\C=C\[C@H](C)[C@H](O)[C@@H](C)[C@@H](O)[C@@H](C)[C@H](OC(=O)COC(C)=O)[C@@H]1C)C4=O` [Compound C13, 36-Acetyloxyrifamycin S], the MIC came to 0.004 µg/mL in assay [11]; 32 µg/mL in [2]; 0.008 µg/mL in the assay with Strept. pneumoniae; 0.5 µg/mL in assay [3]; 32 µg/mL in [4]; 0.25 µg/mL in the assay on Neisseria gonorrhoeae. The MIC is 0.0005 µg/mL in the assay on Clostridium perfringens; 16 µg/mL with Escherichia coli; at most 0.13 µg/mL in assay [5]; 64 µg/mL in the assay with Klebsiella pneumoniae; 8 µg/mL in assay [6]; over 128 µg/mL in [7]. For the same compound, the MIC stood at 4 µg/mL in the assay with Staph. aureus rifa-r^(2); 0.001 µg/mL in [8]; 0.5 µg/mL in [12]; 0.03 µg/mL in assay [9]; 0.13 µg/mL in assay [10]; 0.25 µg/mL in the assay on Staph. aureus rifa-r^(1). The figures for the MIC in the assay with Staphylococcus aureus and with Streptococcus pyogenes were 0.002 µg/mL and 0.008 µg/mL, respectively.

`CO[C@H]1/C=C/O[C@@]2(C)Oc3c(C)c(O)c4c(c3C2=O)C(=O)C(N2CCOCC2)=C(NC(=O)/C(C)=C\C=C\[C@H](C)[C@H](O)[C@@H](C)[C@@H](O)[C@@H](C)[C@H](OC(=O)CO)[C@@H]1C)C4=O` [Compound C15, 36-Hydroxy-3-(4-morpholinyl)rifamycin S]: the MIC in [11] was 0.002 µg/mL; in assay [2], 4 µg/mL; in the assay with Strept. pneumoniae, 0.016 µg/mL; in assay [3] it was 0.06 µg/mL; in assay [4], 16 µg/mL; with Neisseria gonorrhoeae, 0.03 µg/mL. Further, the MIC is 0.001 µg/mL in the assay on Clostridium perfringens; 8 µg/mL with Escherichia coli; at most 0.13 µg/mL in assay [5]; 8 µg/mL in the assay with Klebsiella pneumoniae; 8 µg/mL in assay [6]; over 128 µg/mL in assay [7]. Also, the MIC in the assay on Staph. aureus rifa-r^(2) was found to be 4 µg/mL; in assay [8], 0.001 µg/mL; in assay [12], 0.03 µg/mL; in assay [9] it was 0.016 µg/mL; in assay [10], 0.5 µg/mL; with Staph. aureus rifa-r^(1), 2 µg/mL. Further, the MIC in the assay on Staphylococcus aureus was determined as 0.002 µg/mL; with Streptococcus pyogenes it was 0.03 µg/mL.
